From US20230144436A1, “MUSCLE TARGETING COMPLEXES AND USES THEREOF FOR TREATING MYOTONIC DYSTROPHY” (Dyne Therapeutics, Inc., priority 2020, published 2023)

system: DMPK; assay: DMPK knockdown by transfected antisense oligonucleotides in DM1 C15 myotubes at 0.5 nM and 50 nM; assay type: cell-based; details: 0.5 nM oligonucleotide, 72 hours
How it was run: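 Seven-day-differentiated DM1 C15 myotubes transfected (Lipofectamine MessengerMax) with each oligonucleotide at 0.5 nM or 50 nM final, biological triplicates. After 72 h, DMPK mRNA quantified by qPCR, expressed relative to vehicle-only transfection set to 1.00.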

Q: For “444 (GCGUCACCUCGGCCUCAGCC; chemistry not given here) [compound 444]”, which “Percent DMPK Reduction” value is on record?
A: 20.02%

Q: Which “Percent DMPK Reduction” value does the source give for “445 (GAGGGCCUUUUAUUCGCGAG; chemistry not given here) [compound 445]” here?
A: 8.23%

Q: “446 (AGCGGCAGAGAGAGGUGCUC; chemistry not given here) [compound 446]” was tested. Which “Percent DMPK Reduction” value did it give?
A: 19.75%

Q: With “447 (CAUCCAAAACGUGGAUUGGG; chemistry not given here) [compound 447]” as the substance, how does the “Percent DMPK Reduction” value read?
A: 19.12%

Q: Which “Percent DMPK Reduction” value does the source give for “448 (UUGGGCAGAUGGAGGGCCUU; chemistry not given here) [compound 448]” here?
A: 19.08%

Q: For “449 (CCUCUGCCUCGCGUAGUUGA; chemistry not given here) [compound 449]”, which “Percent DMPK Reduction” value is on record?
A: 7.39%

Q: With “450 (ACAGAACAACGGCGAACAGG; chemistry not given here) [compound 450]” as the substance, how does the “Percent DMPK Reduction” value read?
A: 2.07%

Q: How did the “Percent DMPK Reduction” value turn out when “451 (CAGGAUGUUGUCGGGUUUGA; chemistry not given here) [compound 451]” was run?
A: 17.17%

Q: How did the “Percent DMPK Reduction” value turn out when “452 (CGGCCUCAGCCUCUGCCGCA; chemistry not given here) [compound 452]” was run?
A: 6.71%

Q: How did the “Percent DMPK Reduction” value turn out when “453 (CAGCAGGAUGUUGUCGGGUU; chemistry not given here) [compound 453]” was run?
A: 34.18%

Q: “454 (GCAGAGAGAGGUGCUCCUUG; chemistry not given here) [compound 454]” was tested. Which “Percent DMPK Reduction” value did it give?
A: 17.29%

Q: How did the “Percent DMPK Reduction” value turn out when “455 (UCCAGUUCCAUGGGUGUGGG; chemistry not given here) [compound 455]” was run?
A: 15.66%

Q: “456 (CCUCAGCCUGGCCGAAAGAA; chemistry not given here) [compound 456]” was tested. Which “Percent DMPK Reduction” value did it give?
A: 16.83%

Q: With “457 (GGGCCUUUUAUUCGCGAGGG; chemistry not given here) [compound 457]” as the substance, how does the “Percent DMPK Reduction” value read?
A: 5.11%

Q: With “458 (GUCGGCCAGGCGGAUGUGGC; chemistry not given here) [compound 458]” as the substance, how does the “Percent DMPK Reduction” value read?
A: 15.35%

Q: How did the “Percent DMPK Reduction” value turn out when “459 (GCUUGCUGCCUUCCCAGGCC; chemistry not given here) [compound 459]” was run?
A: 1.14%

Q: How did the “Percent DMPK Reduction” value turn out when “460 (GGUCCAGCAGGAUGUUGUCG; chemistry not given here) [compound 460]” was run?
A: 31.78%

Q: Which “Percent DMPK Reduction” value does the source give for “461 (CGGAGACCAUCCCAGUCGAG; chemistry not given here) [compound 461]” here?
A: 14.08%

Q: Which “Percent DMPK Reduction” value does the source give for “462 (UCUGCCUCGCGUAGUGACU; chemistry not given here) [compound 462]” here?
A: 3.53%

same assay, conditions: 0.5 nM oligonucleotide, 72 hours, relative to vehicle control = 1.00

Q: With “444 (GCGUCACCUCGGCCUCAGCC; chemistry not given here) [compound 444]” as the substance, how does the “Normalized DMPK Remaining” value read?
A: 0.80

Q: How did the “Normalized DMPK Remaining” value turn out when “445 (GAGGGCCUUUUAUUCGCGAG; chemistry not given here) [compound 445]” was run?
A: 0.92

Q: Which “Normalized DMPK Remaining” value does the source give for “446 (AGCGGCAGAGAGAGGUGCUC; chemistry not given here) [compound 446]” here?
A: 0.80

Q: With “447 (CAUCCAAAACGUGGAUUGGG; chemistry not given here) [compound 447]” as the substance, how does the “Normalized DMPK Remaining” value read?
A: 0.81

Q: “448 (UUGGGCAGAUGGAGGGCCUU; chemistry not given here) [compound 448]” was tested. Which “Normalized DMPK Remaining” value did it give?
A: 0.81

Q: With “449 (CCUCUGCCUCGCGUAGUUGA; chemistry not given here) [compound 449]” as the substance, how does the “Normalized DMPK Remaining” value read?
A: 0.93

Q: How did the “Normalized DMPK Remaining” value turn out when “450 (ACAGAACAACGGCGAACAGG; chemistry not given here) [compound 450]” was run?
A: 0.98

Q: With “451 (CAGGAUGUUGUCGGGUUUGA; chemistry not given here) [compound 451]” as the substance, how does the “Normalized DMPK Remaining” value read?
A: 0.83

Q: How did the “Normalized DMPK Remaining” value turn out when “452 (CGGCCUCAGCCUCUGCCGCA; chemistry not given here) [compound 452]” was run?
A: 0.93

Q: “453 (CAGCAGGAUGUUGUCGGGUU; chemistry not given here) [compound 453]” was tested. Which “Normalized DMPK Remaining” value did it give?
A: 0.66

Q: For “454 (GCAGAGAGAGGUGCUCCUUG; chemistry not given here) [compound 454]”, which “Normalized DMPK Remaining” value is on record?
A: 0.83

Q: With “455 (UCCAGUUCCAUGGGUGUGGG; chemistry not given here) [compound 455]” as the substance, how does the “Normalized DMPK Remaining” value read?
A: 0.84

Q: How did the “Normalized DMPK Remaining” value turn out when “456 (CCUCAGCCUGGCCGAAAGAA; chemistry not given here) [compound 456]” was run?
A: 0.83

Q: Which “Normalized DMPK Remaining” value does the source give for “457 (GGGCCUUUUAUUCGCGAGGG; chemistry not given here) [compound 457]” here?
A: 0.95

Q: With “458 (GUCGGCCAGGCGGAUGUGGC; chemistry not given here) [compound 458]” as the substance, how does the “Normalized DMPK Remaining” value read?
A: 0.85

Q: For “459 (GCUUGCUGCCUUCCCAGGCC; chemistry not given here) [compound 459]”, which “Normalized DMPK Remaining” value is on record?
A: 0.99

Q: How did the “Normalized DMPK Remaining” value turn out when “460 (GGUCCAGCAGGAUGUUGUCG; chemistry not given here) [compound 460]” was run?
A: 0.68

Q: “461 (CGGAGACCAUCCCAGUCGAG; chemistry not given here) [compound 461]” was tested. Which “Normalized DMPK Remaining” value did it give?
A: 0.86

Q: For “462 (UCUGCCUCGCGUAGUGACU; chemistry not given here) [compound 462]”, which “Normalized DMPK Remaining” value is on record?
A: 0.96

same assay, conditions: 50 nM oligonucleotide, 72 hours

Q: How did the “Percent DMPK Reduction” value turn out when “444 (GCGUCACCUCGGCCUCAGCC; chemistry not given here) [compound 444]” was run?
A: 81.27%

Q: How did the “Percent DMPK Reduction” value turn out when “445 (GAGGGCCUUUUAUUCGCGAG; chemistry not given here) [compound 445]” was run?
A: 62.21%

Q: “446 (AGCGGCAGAGAGAGGUGCUC; chemistry not given here) [compound 446]” was tested. Which “Percent DMPK Reduction” value did it give?
A: 90.71%

Q: With “447 (CAUCCAAAACGUGGAUUGGG; chemistry not given here) [compound 447]” as the substance, how does the “Percent DMPK Reduction” value read?
A: 77.98%

Q: For “448 (UUGGGCAGAUGGAGGGCCUU; chemistry not given here) [compound 448]”, which “Percent DMPK Reduction” value is on record?
A: 78.39%

Q: How did the “Percent DMPK Reduction” value turn out when “449 (CCUCUGCCUCGCGUAGUUGA; chemistry not given here) [compound 449]” was run?
A: 85.33%

Q: For “450 (ACAGAACAACGGCGAACAGG; chemistry not given here) [compound 450]”, which “Percent DMPK Reduction” value is on record?
A: 55.96%

Q: “451 (CAGGAUGUUGUCGGGUUUGA; chemistry not given here) [compound 451]” was tested. Which “Percent DMPK Reduction” value did it give?
A: 79.31%

Q: How did the “Percent DMPK Reduction” value turn out when “452 (CGGCCUCAGCCUCUGCCGCA; chemistry not given here) [compound 452]” was run?
A: 60.06%

Q: Which “Percent DMPK Reduction” value does the source give for “453 (CAGCAGGAUGUUGUCGGGUU; chemistry not given here) [compound 453]” here?
A: 84.54%

Q: With “454 (GCAGAGAGAGGUGCUCCUUG; chemistry not given here) [compound 454]” as the substance, how does the “Percent DMPK Reduction” value read?
A: 85.95%

Q: How did the “Percent DMPK Reduction” value turn out when “455 (UCCAGUUCCAUGGGUGUGGG; chemistry not given here) [compound 455]” was run?
A: 78.48%

Q: Which “Percent DMPK Reduction” value does the source give for “456 (CCUCAGCCUGGCCGAAAGAA; chemistry not given here) [compound 456]” here?
A: 63.99%

Q: With “457 (GGGCCUUUUAUUCGCGAGGG; chemistry not given here) [compound 457]” as the substance, how does the “Percent DMPK Reduction” value read?
A: 50.65%

Q: For “458 (GUCGGCCAGGCGGAUGUGGC; chemistry not given here) [compound 458]”, which “Percent DMPK Reduction” value is on record?
A: 74.59%

Q: How did the “Percent DMPK Reduction” value turn out when “459 (GCUUGCUGCCUUCCCAGGCC; chemistry not given here) [compound 459]” was run?
A: 81.01%

Q: “460 (GGUCCAGCAGGAUGUUGUCG; chemistry not given here) [compound 460]” was tested. Which “Percent DMPK Reduction” value did it give?
A: 79.93%

Q: Which “Percent DMPK Reduction” value does the source give for “461 (CGGAGACCAUCCCAGUCGAG; chemistry not given here) [compound 461]” here?
A: 79.93%

Q: “462 (UCUGCCUCGCGUAGUGACU; chemistry not given here) [compound 462]” was tested. Which “Percent DMPK Reduction” value did it give?
A: 86.86%

same assay, conditions: 50 nM oligonucleotide, 72 hours, relative to vehicle control = 1.00

Q: “444 (GCGUCACCUCGGCCUCAGCC; chemistry not given here) [compound 444]” was tested. Which “Normalized DMPK Remaining” value did it give?
A: 0.19

Q: “445 (GAGGGCCUUUUAUUCGCGAG; chemistry not given here) [compound 445]” was tested. Which “Normalized DMPK Remaining” value did it give?
A: 0.38

Q: Which “Normalized DMPK Remaining” value does the source give for “446 (AGCGGCAGAGAGAGGUGCUC; chemistry not given here) [compound 446]” here?
A: 0.09

Q: Which “Normalized DMPK Remaining” value does the source give for “447 (CAUCCAAAACGUGGAUUGGG; chemistry not given here) [compound 447]” here?
A: 0.22

Q: Which “Normalized DMPK Remaining” value does the source give for “448 (UUGGGCAGAUGGAGGGCCUU; chemistry not given here) [compound 448]” here?
A: 0.22

Q: With “449 (CCUCUGCCUCGCGUAGUUGA; chemistry not given here) [compound 449]” as the substance, how does the “Normalized DMPK Remaining” value read?
A: 0.15

Q: For “450 (ACAGAACAACGGCGAACAGG; chemistry not given here) [compound 450]”, which “Normalized DMPK Remaining” value is on record?
A: 0.44

Q: How did the “Normalized DMPK Remaining” value turn out when “451 (CAGGAUGUUGUCGGGUUUGA; chemistry not given here) [compound 451]” was run?
A: 0.21

Q: For “452 (CGGCCUCAGCCUCUGCCGCA; chemistry not given here) [compound 452]”, which “Normalized DMPK Remaining” value is on record?
A: 0.40

Q: Which “Normalized DMPK Remaining” value does the source give for “453 (CAGCAGGAUGUUGUCGGGUU; chemistry not given here) [compound 453]” here?
A: 0.15

Q: With “454 (GCAGAGAGAGGUGCUCCUUG; chemistry not given here) [compound 454]” as the substance, how does the “Normalized DMPK Remaining” value read?
A: 0.14

Q: For “455 (UCCAGUUCCAUGGGUGUGGG; chemistry not given here) [compound 455]”, which “Normalized DMPK Remaining” value is on record?
A: 0.22

Q: How did the “Normalized DMPK Remaining” value turn out when “456 (CCUCAGCCUGGCCGAAAGAA; chemistry not given here) [compound 456]” was run?
A: 0.36

Q: “457 (GGGCCUUUUAUUCGCGAGGG; chemistry not given here) [compound 457]” was tested. Which “Normalized DMPK Remaining” value did it give?
A: 0.49

Q: How did the “Normalized DMPK Remaining” value turn out when “458 (GUCGGCCAGGCGGAUGUGGC; chemistry not given here) [compound 458]” was run?
A: 0.25

Q: With “459 (GCUUGCUGCCUUCCCAGGCC; chemistry not given here) [compound 459]” as the substance, how does the “Normalized DMPK Remaining” value read?
A: 0.19

Q: For “460 (GGUCCAGCAGGAUGUUGUCG; chemistry not given here) [compound 460]”, which “Normalized DMPK Remaining” value is on record?
A: 0.20

Q: How did the “Normalized DMPK Remaining” value turn out when “461 (CGGAGACCAUCCCAGUCGAG; chemistry not given here) [compound 461]” was run?
A: 0.20

Q: With “462 (UCUGCCUCGCGUAGUGACU; chemistry not given here) [compound 462]” as the substance, how does the “Normalized DMPK Remaining” value read?
A: 0.13
